Test results reported in patent US20260193264A1, “BENZOYPARAZINE PYRAZINES AND THEIR USES” (FOGHORN THERAPEUTICS INC., priority 2022, published 2026).

Experiments:
[1] = target: T1, HiBit-BRG1 fusion protein in stable HeLa cell line expressing HiBit-BRG1 and LgBit (Homo sapiens, UniProt P51532); assay: HiBiT-BRG1 cell-based degradation assay (Nano-Glo HiBiT, 24 h); details: HeLa HiBit-BRG1/LgBit cells; for DC50: read-out: BRMG1 HiBit Degradation IC50; for Dmax: top dose 30 μM, read-out: BRG1 HiBit Degradation Maximum (%)
T1 construct: expressed in transfected cells
T1 sequence (P51532 whole entry, the tested form may be a part): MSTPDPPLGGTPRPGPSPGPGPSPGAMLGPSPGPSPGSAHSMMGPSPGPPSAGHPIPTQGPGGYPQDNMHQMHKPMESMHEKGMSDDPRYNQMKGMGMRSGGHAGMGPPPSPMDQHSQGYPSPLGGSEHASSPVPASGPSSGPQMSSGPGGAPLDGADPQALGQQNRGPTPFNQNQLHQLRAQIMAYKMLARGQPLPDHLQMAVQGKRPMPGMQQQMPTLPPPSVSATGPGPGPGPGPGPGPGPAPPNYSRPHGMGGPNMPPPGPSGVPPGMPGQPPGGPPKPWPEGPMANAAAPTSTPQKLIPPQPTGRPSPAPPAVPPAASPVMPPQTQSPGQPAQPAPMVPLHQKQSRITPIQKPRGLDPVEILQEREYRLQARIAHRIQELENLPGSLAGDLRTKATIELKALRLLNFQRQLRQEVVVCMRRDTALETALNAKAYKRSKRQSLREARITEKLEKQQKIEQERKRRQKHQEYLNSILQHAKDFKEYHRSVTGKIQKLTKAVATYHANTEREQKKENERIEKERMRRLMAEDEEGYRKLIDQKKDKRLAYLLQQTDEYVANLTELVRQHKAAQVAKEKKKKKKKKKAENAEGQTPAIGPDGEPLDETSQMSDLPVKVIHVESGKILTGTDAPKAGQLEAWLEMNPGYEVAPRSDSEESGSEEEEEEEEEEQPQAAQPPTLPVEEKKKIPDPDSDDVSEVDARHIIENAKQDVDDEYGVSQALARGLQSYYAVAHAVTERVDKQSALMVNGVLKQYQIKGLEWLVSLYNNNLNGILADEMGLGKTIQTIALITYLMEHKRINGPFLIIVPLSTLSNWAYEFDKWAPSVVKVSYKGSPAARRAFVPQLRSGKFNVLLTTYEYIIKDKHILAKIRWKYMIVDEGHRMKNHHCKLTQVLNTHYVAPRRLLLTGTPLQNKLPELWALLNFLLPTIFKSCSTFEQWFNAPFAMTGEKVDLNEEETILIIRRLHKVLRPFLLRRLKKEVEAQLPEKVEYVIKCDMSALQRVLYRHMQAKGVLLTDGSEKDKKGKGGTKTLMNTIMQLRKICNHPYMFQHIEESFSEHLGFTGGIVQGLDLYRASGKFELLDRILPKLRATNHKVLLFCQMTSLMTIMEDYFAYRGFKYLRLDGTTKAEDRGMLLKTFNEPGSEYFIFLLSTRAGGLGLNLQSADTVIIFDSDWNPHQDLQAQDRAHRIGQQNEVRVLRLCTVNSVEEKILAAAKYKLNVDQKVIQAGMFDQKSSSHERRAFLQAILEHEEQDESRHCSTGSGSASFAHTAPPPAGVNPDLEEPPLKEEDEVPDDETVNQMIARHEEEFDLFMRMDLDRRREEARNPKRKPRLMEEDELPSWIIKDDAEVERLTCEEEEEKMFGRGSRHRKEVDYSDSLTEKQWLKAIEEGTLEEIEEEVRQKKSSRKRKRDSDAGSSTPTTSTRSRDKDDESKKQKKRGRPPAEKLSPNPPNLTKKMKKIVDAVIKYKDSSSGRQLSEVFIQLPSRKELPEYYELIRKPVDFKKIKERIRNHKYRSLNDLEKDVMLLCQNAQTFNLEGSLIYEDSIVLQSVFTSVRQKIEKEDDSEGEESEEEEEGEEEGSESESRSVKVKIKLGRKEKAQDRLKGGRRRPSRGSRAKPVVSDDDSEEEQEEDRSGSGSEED
How it was run: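 Stable HeLa line co-expressing HiBiT-BRG1 and LgBiT, compound-treated 24 h; luminescence read after Nano-Glo HiBiT lytic reagent. % degradation normalised between DMSO (high control) and 2 μM reference BRM/BRG1 degrader (low control).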

[2] = target: T2, HiBiT-BRM fusion protein in stable HeLa cell line (Homo sapiens, UniProt P51531); assay: HiBiT-BRM cell-based degradation assay (Nano-Glo HiBiT Lytic Detection, 24 h); parameters: DC50: scale not given here; details: HeLa HiBiT-BRM cells; for DC50: read-out: BRM HiBit Degradation IC50; for BRM HiBit Degradation Maximum (%): top dose 30 μM
T2 construct: expressed in transfected cells
T2 sequence (P51531 whole entry, the tested form may be a part): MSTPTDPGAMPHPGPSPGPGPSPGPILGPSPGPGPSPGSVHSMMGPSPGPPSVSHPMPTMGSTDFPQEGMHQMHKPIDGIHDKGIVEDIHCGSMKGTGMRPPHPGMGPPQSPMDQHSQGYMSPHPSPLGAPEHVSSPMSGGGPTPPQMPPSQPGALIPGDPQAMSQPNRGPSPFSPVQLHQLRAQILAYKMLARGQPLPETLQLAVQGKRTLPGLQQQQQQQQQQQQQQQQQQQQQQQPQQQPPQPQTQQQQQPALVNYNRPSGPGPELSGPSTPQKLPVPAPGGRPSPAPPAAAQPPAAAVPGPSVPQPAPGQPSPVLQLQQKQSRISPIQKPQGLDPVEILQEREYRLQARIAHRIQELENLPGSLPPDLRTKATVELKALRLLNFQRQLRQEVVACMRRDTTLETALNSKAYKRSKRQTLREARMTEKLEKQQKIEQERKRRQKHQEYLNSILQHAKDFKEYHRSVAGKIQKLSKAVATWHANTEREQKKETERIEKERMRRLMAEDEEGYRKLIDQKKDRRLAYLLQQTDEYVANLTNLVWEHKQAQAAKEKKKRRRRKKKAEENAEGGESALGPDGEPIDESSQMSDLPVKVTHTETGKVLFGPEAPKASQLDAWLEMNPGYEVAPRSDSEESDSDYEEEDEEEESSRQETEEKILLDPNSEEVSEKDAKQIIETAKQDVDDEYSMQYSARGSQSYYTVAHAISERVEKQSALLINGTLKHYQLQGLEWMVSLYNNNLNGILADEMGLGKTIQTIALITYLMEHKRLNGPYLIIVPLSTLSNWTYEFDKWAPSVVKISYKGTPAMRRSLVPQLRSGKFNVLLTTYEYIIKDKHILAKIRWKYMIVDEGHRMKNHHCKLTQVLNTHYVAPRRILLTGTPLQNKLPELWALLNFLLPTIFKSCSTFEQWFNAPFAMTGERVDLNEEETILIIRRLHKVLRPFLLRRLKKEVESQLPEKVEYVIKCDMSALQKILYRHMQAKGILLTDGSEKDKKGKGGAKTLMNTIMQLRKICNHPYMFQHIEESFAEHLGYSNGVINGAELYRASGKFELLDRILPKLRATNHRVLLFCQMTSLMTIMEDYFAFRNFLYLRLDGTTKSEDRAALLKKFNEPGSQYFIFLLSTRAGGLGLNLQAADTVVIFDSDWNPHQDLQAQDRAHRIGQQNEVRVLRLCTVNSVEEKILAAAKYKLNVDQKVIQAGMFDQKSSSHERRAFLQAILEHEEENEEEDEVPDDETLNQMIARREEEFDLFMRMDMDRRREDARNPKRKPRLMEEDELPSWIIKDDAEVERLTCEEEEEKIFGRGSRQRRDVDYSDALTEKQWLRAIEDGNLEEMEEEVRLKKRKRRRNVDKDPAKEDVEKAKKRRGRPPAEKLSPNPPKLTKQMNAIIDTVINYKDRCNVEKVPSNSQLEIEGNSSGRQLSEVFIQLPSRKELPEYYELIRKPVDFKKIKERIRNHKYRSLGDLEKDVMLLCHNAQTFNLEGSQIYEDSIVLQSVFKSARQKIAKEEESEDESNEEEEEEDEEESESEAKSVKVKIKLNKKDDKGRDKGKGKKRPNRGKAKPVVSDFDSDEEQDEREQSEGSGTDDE
How it was run: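 Stable HiBiT-BRM HeLa cells treated 24 h with 10-point 3-fold dilutions, top final dose 30 μM, in duplicate. Luminescence read after lytic LgBiT reagent. Percent degradation was normalised to DMSO (high control) and 2 μM reference BRM/BRG1 degrader (low control).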

SMILES | DC50 [1] [nM] | Dmax [1] [%] | DC50 [2] [nM] | BRM HiBit Degradation Maximum (%) [2]
Cc1ncsc1-c1ccc([C@H](C)NC(=O)[C@@H]2C[C@@H](O)CN2C(=O)C(C(C)C)n2cc(N3CCC(CN4CCN(c5ccc6cc(-c7ccccc7O)nnc6c5)CC4)CC3)nn2)cc1 (stereo partly drawn) [Compound 259, (2S,4R)-4-hydroxy-1-(2-(4-(4-((4-(3-(2-hydroxyphenyl)cinnolin-7-yl)piperazin-1-yl)methyl)piperidin-1-yl)-1H-1,2,3-triazol-1-yl)-3-methylbutanoyl)-N-((S)-1-(4-(4-methylthiazol-5-yl)phenyl)ethyl)pyrrolidine-2-carboxamide] | > 10 | > 75 | < 10 | A (“A” indicates maximum degradation ≥75%)
Cc1ncsc1-c1ccc([C@H](C)NC(=O)[C@@H]2C[C@@H](O)CN2C(=O)[C@@H](c2cc(N3CCC(c4ccc5cc(-c6ccccc6O)nnc5c4)CC3)no2)C(C)C)cc1 [Compound 74, (2S,4R)-4-hydroxy-1-((R)-2-(3-(4-(3-(2-hydroxyphenyl)cinnolin-7-yl)piperidin-1-yl)isoxazol-5-yl)-3-methylbutanoyl)-N-((S)-1-(4-(4-methylthiazol-5-yl)phenyl)ethyl)pyrrolidine-2-carboxamide] | – | < 50 | < 10 | A (“A” indicates maximum degradation ≥75%)
Cc1ncsc1-c1ccc([C@H](C)NC(=O)[C@@H]2C[C@@H](O)CN2C(=O)[C@H](C(C)C)n2cc(C3CC4(C3)CN(c3ccc5cc(-c6ccccc6O)nnc5c3)C4)nn2)cc1 [Compound 186, (2S,4R)-4-hydroxy-1-[(2S)-2-(4-{2-[3-(2-hydroxyphenyl)cinnolin-7-yl]-2-azaspiro[3.3]heptan-6-yl}-1,2,3-triazol-1-yl)-3-methylbutanoyl]-N-[(1S)-1-[4-(4-methyl-1,3-thiazol-5-yl)phenyl]ethyl]pyrrolidine-2-carboxamide] | < 10 | > 75 | < 10 | A (“A” indicates maximum degradation ≥75%)
Cc1ncsc1-c1ccc([C@H](C)NC(=O)[C@H]2C[C@H](O)CN2C(=O)C(c2cc(N3C[C@@H]4C[C@H]3CN4c3ccc4cc(-c5ccccc5O)nnc4c3)no2)C(C)C)cc1 (stereo partly drawn) [Compound 224, (2R,4S)-4-hydroxy-1-(2-(3-((1S,4S)-5-(3-(2-hydroxyphenyl)cinnolin-7-yl)-2,5-diazabicyclo[2.2.1]heptan-2-yl)isoxazol-5-yl)-3-methylbutanoyl)-N-((S)-1-(4-(4-methylthiazol-5-yl)phenyl)ethyl)pyrrolidine-2-carboxamide] | > 10 | > 75 | < 10 | A (“A” indicates maximum degradation ≥75%)
Cc1ncsc1-c1ccc([C@H](C)NC(=O)[C@@H]2C[C@@H](O)CN2C(=O)C(c2cc(N3C[C@@H]4CN(c5ccc6cc(-c7ccccc7O)nnc6c5)C[C@H]4C3)no2)C(C)C)cc1 (stereo partly drawn) [Compound 226, (2S,4R)-4-hydroxy-1-(2-(3-((3aS,6aS)-5-(3-(2-hydroxyphenyl)cinnolin-7-yl)hexahydropyrrolo[3,4-c]pyrrol-2(1H)-yl)isoxazol-5-yl)-3-methylbutanoyl)-N-((S)-1-(4-(4-methylthiazol-5-yl)phenyl)ethyl)pyrrolidine-2-carboxamide] | – | < 50 | > 10 | A (“A” indicates maximum degradation ≥75%)
Cc1ncsc1-c1ccc([C@H](C)NC(=O)[C@@H]2C[C@@H](O)CN2C(=O)[C@@H](c2cc(N3CCC(C(=O)N4CC(c5ccc6nnc(-c7ccccc7O)cc6c5)C4)CC3)no2)C(C)C)cc1 [Compound 7, (2S,4R)-4-hydroxy-1-((R)-2-(3-(4-(3-(3-(2-hydroxyphenyl)cinnolin-6-yl)azetidine-1-carbonyl)piperidin-1-yl)isoxazol-5-yl)-3-methylbutanoyl)-N-((S)-1-(4-(4-methylthiazol-5-yl)phenyl)ethyl)pyrrolidine-2-carboxamide] | > 100 | > 50 | > 10 | A (“A” indicates maximum degradation ≥75%)
CNC(=O)[C@@H]1C[C@@H](O)CN1C(=O)[C@@H](c1cc(N2CC3(CN(c4ccc5nnc(-c6ccccc6O)cc5c4)C3)C2)no1)C(C)C [Compound 181, (2S,4R)-4-hydroxy-1-((R)-2-(3-(6-(3-(2-hydroxyphenyl)cinnolin-6-yl)-2,6-diazaspiro[3.3]heptan-2-yl)isoxazol-5-yl)-3-methylbutanoyl)-N-methylpyrrolidine-2-carboxamide] | – | < 50 | > 100 | A (“A” indicates maximum degradation ≥75%)
Cc1ncsc1-c1ccc([C@H](C)NC(=O)[C@@H]2C[C@@H](O)CN2C(=O)[C@@H](c2cc(N3CCC(c4ccc5nnc(-c6ccccc6O)cc5c4)CC3)no2)C(C)C)cc1 [Compound 61, (2S,4R)-4-hydroxy-1-((R)-2-(3-(4-(3-(2-hydroxyphenyl)cinnolin-6-yl)piperidin-1-yl)isoxazol-5-yl)-3-methylbutanoyl)-N-((S)-1-(4-(4-methylthiazol-5-yl)phenyl)ethyl)pyrrolidine-2-carboxamide] | – | < 50 | > 10 | A (“A” indicates maximum degradation ≥75%)
Cc1ncsc1-c1ccc([C@H](C)NC(=O)[C@@H]2C[C@@H](O)CN2C(=O)[C@@H](c2cc(N3CC[C@H](c4ccc5cc(-c6ccccc6O)nnc5c4)C3)no2)C(C)C)cc1 [Compound 60, (2S,4R)-4-hydroxy-1-((R)-2-(3-((R)-3-(3-(2-hydroxyphenyl)cinnolin-7-yl)pyrrolidin-1-yl)isoxazol-5-yl)-3-methylbutanoyl)-N-((S)-1-(4-(4-methylthiazol-5-yl)phenyl)ethyl)pyrrolidine-2-carboxamide] | < 10 | > 75 | < 10 | A (“A” indicates maximum degradation ≥75%)
CC(C)[C@@H](C(=O)N1C[C@H](O)C[C@H]1C(=O)N[C@@H](C)c1ccc(F)cc1)n1cc(-c2ccc3nnc(-c4cccc(F)c4O)cc3c2)nn1 [Compound 177, (2S,4R)-1-((S)-2-(4-(3-(3-fluoro-2-hydroxyphenyl)cinnolin-6-yl)-1H-1,2,3-triazol-1-yl)-3-methylbutanoyl)-N-((S)-1-(4-fluorophenyl)ethyl)-4-hydroxypyrrolidine-2-carboxamide] | > 10 | > 75 | < 10 | A (“A” indicates maximum degradation ≥75%)
Cc1ncsc1-c1ccc([C@H](C)NC(=O)[C@@H]2C[C@@H](O)CN2C(=O)[C@@H](c2cc(-c3ccnc(N4CCC(c5ccc6nnc(-c7ccccc7O)cc6c5)CC4)n3)no2)C(C)C)cc1 [Compound 38] | – | < 50 | > 100 | A (“A” indicates maximum degradation ≥75%)
C#Cc1ccc([C@H](C)NC(=O)[C@@H]2C[C@@H](O)CN2C(=O)[C@H](C(C)C)n2cc(N3CC4(CN(c5ccc6cc(-c7ccccc7O)nnc6c5)C4)C3)nn2)cc1 [Compound 254, (2S,4R)-N-((S)-1-(4-ethynylphenyl)ethyl)-4-hydroxy-1-((S)-2-(4-(6-(3-(2-hydroxyphenyl)cinnolin-7-yl)-2,6-diazaspiro[3.3]heptan-2-yl)-1H-1,2,3-triazol-1-yl)-3-methylbutanoyl)pyrrolidine-2-carboxamide] | – | < 50 | < 10 | A (“A” indicates maximum degradation ≥75%)
